Laboratory results from PubChem BioAssay (NCI).
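Compound exposure: 48 hours, 5 concentrations, 96-well plates. At the TGI there is no net growth.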

How the values were obtained:
Assay in all cases: growth of human tumour cells (NCI), 48 h
[1] = tested on: LOX IMVI melanoma
[2] = tested on: RXF 393 renal
[3] = tested on: OVCAR-3 ovarian
[4] = tested on: PC-3 prostate
[5] = tested on: SN12C renal
[6] = tested on: SK-MEL-2 melanoma
[7] = tested on: KM12 colon
[8] = tested on: MCF7 breast
[9] = tested on: K-562 leukemia
[10] = tested on: HL-60(TB) leukemia
[11] = tested on: HOP-92 NSCLC
[12] = tested on: HOP-62 NSCLC
[13] = tested on: EKVX NSCLC
[14] = tested on: SK-MEL-5 melanoma
[15] = tested on: A549 NSCLC
[16] = tested on: OVCAR-4 ovarian
[17] = tested on: HCT-15 colon
[18] = tested on: MDA-N
[19] = tested on: UACC-62 melanoma
[20] = tested on: OVCAR-5 ovarian
[21] = tested on: SR leukemia
[22] = tested on: OVCAR-8 ovarian
[23] = tested on: 786-0 renal
[24] = tested on: UACC-257 melanoma
[25] = tested on: HCT-116 colon
[26] = tested on: NCI-H460 lung
[27] = tested on: COLO 205 colon
[28] = tested on: SNB-19 CNS
[29] = tested on: HCC-2998 colon
[30] = tested on: U251 CNS
[31] = tested on: CCRF-CEM leukemia
[32] = tested on: CAKI-1 renal
[33] = tested on: SK-OV-3 ovarian
[34] = tested on: ACHN renal
[35] = tested on: RPMI-8226 leukemia
[36] = tested on: NCI/ADR-RES ovarian
[37] = tested on: M14 melanoma
[38] = tested on: TK-10 renal
[39] = tested on: NCI-H226 lung
[40] = tested on: SK-MEL-28 melanoma
[41] = tested on: A498 renal
[42] = tested on: T-47D breast
[43] = tested on: SW-620 colon
[44] = tested on: IGROV1 ovarian
[45] = tested on: UO-31 renal
[46] = tested on: DU-145 prostate
[47] = tested on: NCI-H23 lung
[48] = tested on: MDA-MB-435
[49] = tested on: BT-549 breast
[50] = tested on: MOLT-4 leukemia
[51] = tested on: SNB-75 CNS
[52] = tested on: SF-295 CNS
[53] = tested on: MALME-3M melanoma
[54] = tested on: NCI-H522 lung
[55] = tested on: HT29 colon
[56] = tested on: HS 578T breast
[57] = tested on: SF-268 CNS
[58] = tested on: MDA-MB-231 breast
[59] = tested on: SF-539 CNS

Measured: TGI

COC(CO[Si](C)(C)N[Si](C)(C)OCC(OC)c1ccccc1)c1ccccc1 (centres undefined)
> 100 µM: [1] | [2] | [3] | [4] | [5] | [6] | [7] | [8] | [9] | [10] | [11] | [12] | [13] | [14] | [15] | [16] | [17] | [18] | [19] | [20] | [21] | [22] | [23] | [24] | [25] | [26] | [27] | [28] | [29] | [30] | [31] | [32] | [33] | [34] | [35] | [36] | [37] | [38] | [39] | [40] | [41] | [42] | [43] | [44] | [45] | [46] | [47] | [48] | [49] | [50] | [51] | [52]

CN(C)CCNc1ccccn1
> 100 µM: [1] | [2] | [3] | [53] | [4] | [5] | [6] | [7] | [9] | [10] | [11] | [12] | [13] | [14] | [15] | [54] | [16] | [17] | [18] | [19] | [20] | [21] | [22] | [23] | [24] | [25] | [26] | [28] | [29] | [30] | [32] | [34] | [36] | [37] | [38] | [39] | [40] | [55] | [56] | [41] | [42] | [43] | [57] | [44] | [45] | [46] | [47] | [58] | [48] | [49] | [50] | [52]

CCNc1nc2ccccc2nc1NCC
> 100 µM: [1] | [2] | [3] | [53] | [4] | [5] | [6] | [7] | [8] | [9] | [10] | [13] | [14] | [15] | [54] | [17] | [18] | [19] | [20] | [21] | [22] | [23] | [24] | [25] | [26] | [27] | [28] | [29] | [30] | [31] | [32] | [33] | [34] | [35] | [36] | [37] | [59] | [38] | [39] | [40] | [55] | [56] | [41] | [43] | [57] | [44] | [45] | [46] | [47] | [58] | [48] | [49] | [50] | [51] | [52]
